Source: patent US20210338782A1, “STORAGE STABLE SOMATOSTATIN-DOPAMINE CHIMERIC COMPOUNDS AND SALT FORMS THEREOF” (Cydan II, Inc., priority 2019, published 2021)
“Also recorded” adds a separate entry of the source. Counter-ions that a name gives are not always drawn.

Legend:
Format in all cases: physicochemical
[1] = Thermogravimetric analysis (TGA) of TBR-760 salt forms; details: ramp 5.0° C. per minute from 25 to 400° C.; listed as tosylate salt
Procedure: Thermogravimetric analyses (TGA) were performed on all TBR-760 salt forms to evaluate thermal stability of each salt form. Studies were performed using a TGA-Q500 thermogravimetric analyzer (TA Instruments). The weight of each compound was measured while the temperature was increased at a ramp rate of 5.0° C. per minute from 25 to 400° C. […] The weight loss may be indicative of loss of adsorbed moisture, entrained solvent or volatile impurities. Decomposition of the compound appears to start at about 234° C. (sulfate salt), 245° C. (chloride salt), 252° C. (tosylate salt), and 255° C. (mesylate salt). For the acetate salt, a further ˜5% loss of weight between 110° C. and 200° C. was observed, indicating loss of volatile acetate ions over that temperature range (FIG. 8).

[2] = Solid state (thermolytic) stability of TBR-760 salt forms, open container, UPLC peak purity and appearance
Procedure: (§1) Each TBR-760 salt was further evaluated for thermolytic stability over time by setting up three different exposure conditions (25° C. at 60% relative humidity (RH); 40° C. at 75% RH; or 60° C. with open and closed container systems (open dish/closed dish). Approximately 50 mg of each salt form was weighed in a nitrogen-flushed glove box for use in the studies. All samples were stored at −20° C. in a good laboratory practice (GLP) freezer both before and after exposure to the indicated conditions.
(§2) The stability of each salt form was assessed by monitoring the post-exposure drug peak purity and by evaluating the post-exposure visual appearance of the salt. The samples were removed from the exposure conditions and allowed to equilibrate to ambient conditions for 15-20 mins. An appropriate amount of each sample was weighed for analysis and dissolved in diluent (deionized water containing 0.1% TFA) to obtain a stock concentration of 1 mg/mL. The stock solution was then diluted to 0.125 mg/mL in an HPLC vial using diluent and the samples were run on a Waters Acquity UPLC system using the parameters shown in Table 4.

[3] = Photostability of TBR-760 salt forms (ICH Q1B, visible and UV light), appearance and UPLC purity
Excerpt: (§3) In order to evaluate the light sensitivity and stability of TBR-760 chimeric peptide salts, all five salt forms were exposed to ultraviolet (UV) and visible light according to International Council for Harmonisation of Technical Requirements for Pharmaceuticals for Human Use (ICH) guideline Q1B for photostability testing. In brief, a Caron 6540-1 photostability chamber unit with separate UV and light chambers was used for the studies. Visible light exposure was 1.2 million lux hours and UV exposure was 200 watt hours/square meter.
Samples were placed in clear, sealed vials and stored in the appropriate chamber alongside dark controls in amber colored vials wrapped in aluminum foil. Control samples were stored in sealed amber vials at −20° C. The appearance of exposed samples was examined visually before being analyzed via UPLC.

[4] = Thermostability of alternative salt forms of lanreotide and TBR-760 (UPLC); details: for compound degraded: 4 weeks at 60° C. and ambient humidity; for thermostability in words: increasing temperature and humidity (25° C./60% RH, 40° C./75% RH, 60° C.) up to 4 weeks
Procedure: as §1, §2
We conducted thermostability studies of lanreotide acetate substantially as described in Example 6. These experiments confirmed that lanreotide acetate is […] when exposed to increasing temperature and humidity conditions over time (FIG. 45). […] (FIG. 45). This degree of thermal and humidity instability is disfavored for a pharmaceutical agent, particularly one intended for patient self-administration at home.
To determine whether a thermostable salt form of TBR-760 could be manufactured, a salt exchange was performed as described in Example 1 to generate bromide and chloride salts of TBR-760. Lanreotide bromide and lanreotide chloride salts were also generated and assessed for thermostability to evaluate the effect of the salt form on compound stability and to compare stability of lanreotide and TBR-760 of each salt.
UPLC assays performed as described in Example 6 were further used to determine the number of degradants—and thus the number of impurities—in each sample. Results showing the purity assessment of each sample following thermostability studies are shown in FIGS. 48A-48B (lanreotide and TBR-760 acetate salts), 49A-49B (lanreotide and TBR-760 bromide salts), and 50A-50B (lanreotide and TBR-760 chloride salts).

[5] = Photostability of alternative salt forms of lanreotide and TBR-760; details: 1.2 million lux hours visible light or 200 watt hours/square meter UV light
Excerpt: as §3
Photostability of lanreotide acetate, lanreotide bromide, lanreotide chloride, TBR-760 acetate, TBR-760 bromide and TBR760 chloride was tested according to the methods of Example 7. Four samples were prepared for each salt form: one control for each of the UV and visible light exposure conditions (controls isolated from light) and one sample for exposure to each of the UV and visible light conditions. For each sample, 2-5 mg of the salt was weighed into 3 mL clear serum vials and stoppered. Vials containing control samples were wrapped in aluminum foil.
Following exposure to visible and UV light, all lanreotide and TBR-760 salts were analyzed by UPLC as described in Example 7.

[6] = 25° C. at 60% RH, open container
[7] = 40° C. at 75% RH, open container
[8] = UPLC peak purity, 25° C. at 60% RH, open container
[9] = UPLC peak purity, 40° C. at 75% RH, open container
[10] = UPLC peak purity, 60° C., open dish
[11] = listed as lanreotide hydrobromide
[12] = listed as hydrobromide salt of TBR-760

Structure (SMILES): CCCN1C[C@H](CSCC(=O)NCCCC[C@@H](NC(=O)CSC[C@@H]2C[C@@H]3c4cccc5[nH]cc(c45)C[C@H]3N(CCC)C2)C(=O)N[C@H]2CSSC[C@@H](C(=O)N[C@H](C(N)=O)[C@@H](C)O)NC(=O)[C@H](CC)NC(=O)[C@H](CCCCN)NC(=O)[C@@H](Cc3c[nH]c4ccccc34)NC(=O)[C@H](Cc3ccc(O)cc3)NC2=O)C[C@@H]2c3cccc4[nH]cc(c34)C[C@H]21 [TBR-760 tosylate, Dop2-D-Lys(Dop2)-cyclo[Cys-Tyr-D-Trp-Lys-Abu-Cys]-Thr-NH2]
- TGA start of decomposition [1]: ~252 °C
- Appearance, T = 2 wk [2, 6]: White
- Appearance, T = 4 wk [2, 6]: White
- Appearance, T = 3 d [2, 6]: White
- Appearance, T = 2 wk [2, 7]: White
- Appearance, T = 4 wk [2, 7]: White
- Appearance, T = 3 d [2, 7]: White
- Appearance, T = 2 wk ([2]; 60° C., open dish): White
- Appearance, T = 4 wk ([2]; 60° C., open dish): White
- Appearance, T = 3 d ([2]; 60° C., open dish): White
- Purity, T = 2 wk [2, 8]: 98.01
- Purity, T = 4 wk [2, 8]: 97.39
- Purity, T = 2 wk [2, 9]: 97.57
- Purity, T = 4 wk [2, 9]: 96.93
- Purity, T = 2 wk [2, 10]: 96.86
- Purity, T = 4 wk [2, 10]: 96.52
- Purity, Control ([2]; UPLC peak purity, control, stored at -20° C.): 98.39
- Appearance, Control ([2]; control, stored at -20° C.): White
- Purity, UV-exposed ([3]; UPLC, UV 200 watt hours/square meter, clear sealed vial): 95.67
- Purity, Control ([3]; UPLC, control in sealed amber vial at -20° C.): 98.39
- Purity, Dark Ctrl-UV ([3]; UPLC, dark control in UV chamber): 98.27
- Purity, Dark Crtl-Light ([3]; UPLC, dark control in visible light chamber): 98.27
- Purity, Light-exposed ([3]; UPLC, visible light 1.2 million lux hours, clear sealed vial): 96.3
- Appearance, UV-exposed ([3]; UV 200 watt hours/square meter, clear sealed vial, listed as Tosylate): off-white
- Appearance, UV-exposed ([3]; UV 200 watt hours/square meter, clear sealed vial, listed as tosylate): white to off-white
- Appearance, Control ([3]; control in sealed amber vial at -20° C.): white
- Appearance, Dark Ctrl-UV ([3]; dark control in UV chamber, amber vial wrapped in aluminum foil): white
- Appearance, Dark Crtl-Light ([3]; dark control in visible light chamber, amber vial wrapped in aluminum foil): white
- degradation upon exposure to visible or UV light, in words ([3]; visible and UV light, UPLC): more resistant to degradation than TBR-760 acetate
- stability following light exposure, in words ([3]; visible light 1.2 million lux hours): significantly more stable than the TBR-760 acetate salt
- Appearance, Light-exposed ([3]; visible light 1.2 million lux hours, clear sealed vial, listed as Tosylate): off-white
- Appearance, Light-exposed ([3]; visible light 1.2 million lux hours, clear sealed vial, listed as tosylate): white to off-white

Structure (SMILES): CC(C)[C@@H]1NC(=O)[C@H](CCCCN)NC(=O)[C@@H](Cc2c[nH]c3ccccc23)NC(=O)[C@H](Cc2ccc(O)cc2)NC(=O)[C@@H](NC(=O)[C@H](N)Cc2ccc3ccccc3c2)CSSC[C@@H](C(=O)N[C@H](C(N)=O)[C@@H](C)O)NC1=O [lanreotide bromide, lanreotide, reference compound]
- compound degraded [4]: more than 7%
- thermostability in words [4, 11]: moderately stable; also recorded: less stable than lanreotide acetate
- photostability in words (UPLC purity) [5, 11]: moderately stable

Structure (SMILES): CC(C)[C@@H]1NC(=O)[C@H](CCCCN)NC(=O)[C@@H](Cc2c[nH]c3ccccc23)NC(=O)[C@H](Cc2ccc(O)cc2)NC(=O)[C@@H](NC(=O)[C@H](N)Cc2ccc3ccccc3c2)CSSC[C@@H](C(=O)N[C@H](C(N)=O)[C@@H](C)O)NC1=O [lanreotide acetate, lanreotide, reference compound]
- thermostability in words [4]: thermostable; also recorded: stable
- photostability in words (UPLC purity) [5]: stable to both visible and UV light

Structure (SMILES): CCCN1C[C@H](CSCC(=O)NCCCC[C@@H](NC(=O)CSC[C@@H]2C[C@@H]3c4cccc5[nH]cc(c45)C[C@H]3N(CCC)C2)C(=O)N[C@H]2CSSC[C@@H](C(=O)N[C@H](C(N)=O)[C@@H](C)O)NC(=O)[C@H](CC)NC(=O)[C@H](CCCCN)NC(=O)[C@@H](Cc3c[nH]c4ccccc34)NC(=O)[C@H](Cc3ccc(O)cc3)NC2=O)C[C@@H]2c3cccc4[nH]cc(c34)C[C@H]21 [TBR-760 bromide, Dop2-D-Lys(Dop2)-cyclo[Cys-Tyr-D-Trp-Lys-Abu-Cys]-Thr-NH2]
- compound degraded [4]: more than 23%
- thermostability in words [4, 12]: significantly degraded
- photostability in words (UPLC purity) [5]: greater loss of purity than TBR-760 acetate or TBR-760 chloride
- visible appearance after exposure to visible and UV light ([5]; versus control): did not visibly change
- photostability in words (UPLC purity) [5, 12]: significantly degraded
